Experiment [1] deals with GBM4. As to the kind of experiment: Cell growth inhibition (Alamar Blue cell viability assay). The settings on record: Homo sapiens, GBM4 patient-derived neurosphere line, 72 hours treatment, triplicate. It is filed as cell-based. As for the experimental part:
(§1) The effect of GRMs on the growth in culture of human and mouse glioblastoma cells was examined. The GRMs mifepristone and CORT125134 inhibited growth in culture of each of five different glioblastoma cell lines. The highest drug concentration tested was 50 μM. The cell lines used were the Standard Serum Human glioblastoma (GBM) Cell lines: U251, GL261, U87, and the patient-derived neurosphere cell lines GBM8 and GBM4. Cells were plated at cell numbers of 2000 cells/well, in a 96-well format; the experiments were done in triplicate. Cell growth inhibition by the applied drugs was assayed. Cell growth inhibition was quantified by the Alamar Blue method using a commercial assay kit. Cell growth inhibition was determined (“read out”) after 72 hours of treatment. […] Cell Cultures: The human glioblastoma cell lines (obtained from the American Type Culture Collection (ATCC), Manassas VA, USA) tested were U251 and U87 (human), and GL261 (mouse). These were grown as an adherent monolayer cultured in DMEM supplemented with 10% fetal bovine serum (FBS) (Seradigm, a subsidiary of VWR, Radnor PA, USA) and 1% glutamine pen-strep (Omega Scientific, Tarzana CA, USA). GBM8 (passage 12) and GBM4 are patient derived glioma stem cell lines obtained and cultured as neurospheres (spheroids) as described by Galli et al., “Isolation and characterization of tumorigenic, stem-like neural precursors from human glioblastoma” Cancer Res 2004, 64 (19), 7011-21 and Lee et al., “Tumor stem cells derived from glioblastomas cultured in bFGF and EGF more closely mirror the phenotype and genotype of primary tumors than do serum-cultured cell lines” Cancer Cell 2006, 9 (5), 391-403. Initial GBM surgical samples were dissociated in stem cell isolation medium containing human recombinant EGF ([…]), human bFGF ([…]) and heparin (2 μg/ml), washed, filtered through a 30 μm mesh and plated onto ultra-low adherence flasks at a concentration of 5×10^5 to 1.5×10^6 viable cells/ml. Sphere cultures were passaged by dissociation, washing and resuspension in neural stem cell culture medium (NeuroCult™ NS-A Proliferation kit #05751, Stemcell Technologies, Vancouver, BC, CA), according to the manufacturer's instructions. Cell Viability Assay: Cells were seeded into 96-well plates at a density of 2000 cells per well. Compounds were added 24 hours after the seeding of cells. All compounds were diluted in 1% FBS/DMEM. The control was treated with media alone. After 3 days incubation (37° C./5% CO2) Alamar Blue (#BUF012B, AbDSerotec, Kidlington, UK) was added according to the manufacturer's protocol, directly to the medium and placed back in the tissue culture incubator (37° C. 5% CO2). After 3-18 hours fluorescent signal was read at 544ex/590em (SpectraMax i3x plate reader, Molecular Devices, San Jose CA, USA) to determine the number of viable cells. The IC50 values were calculated using commercial software (Prism 5 Software, GraphPad, La Jolla CA, USA). After 24 hours post incubation, cells were treated with drugs at various concentrations for 72 hours. Cell viability was measured after 72 hours by Alamar Blue and results reported as triplicate experiment. The following Table presents the IC50 values as determined in these experiments.
For orientation: Resazurin is reduced to fluorescent resorufin, in cell work by metabolically active cells.

Experiment [2] relates to GBM8. The experiment is described as above. The class given is cell-based. The conditions noted are these: Homo sapiens, GBM8 patient-derived neurosphere line, 72 hours treatment, triplicate. As for the experimental part: as §1
The test system of experiment [3] is GL261. The description is as above. It is filed as cell-based. The conditions noted are these: Mus musculus, GL261 standard GBM line, 72 hours treatment, triplicate. On the procedure: as §1
Experiment [4] concerns U251. The description is as above. The conditions noted are these: Homo sapiens, U-251, U251 standard GBM line, 72 hours treatment, triplicate. It is filed as cell-based. As for the experimental part:
as §1

Experiment [5] has as its system U87. Described as above. The class given is cell-based. The settings on record: Homo sapiens, U-87 MG, U87 standard GBM line, 72 hours treatment, triplicate. As for the experimental part:
as §1

Experiment [6] has as its system glioblastoma cell lines U251, GL261, U87, GBM8 and GBM4. Put plainly: Cell growth inhibition, summary over five glioblastoma cell lines. It is filed as cell-based, human and mouse. The settings on record: range over five glioblastoma cell lines, 72 hours treatment, Alamar Blue; read-out: half-maximal inhibition concentration (IC50) values, range over the cell lines. On the procedure:
The effect of GRMs on the growth in culture of human and mouse glioblastoma cells was examined. The GRMs mifepristone and CORT125134 inhibited growth in culture of each of five different glioblastoma cell lines. The highest drug concentration tested was 50 μM. The cell lines used were the Standard Serum Human glioblastoma (GBM) Cell lines: U251, GL261, U87, and the patient-derived neurosphere cell lines GBM8 and GBM4. Cells were plated at cell numbers of 2000 cells/well, in a 96-well format; the experiments were done in triplicate. Cell growth inhibition by the applied drugs was assayed. Cell growth inhibition was quantified by the Alamar Blue method using a commercial assay kit. Cell growth inhibition was determined (“read out”) after 72 hours of treatment. […] Cell Cultures: The human glioblastoma cell lines (obtained from the American Type Culture Collection (ATCC), Manassas VA, USA) tested were U251 and U87 (human), and GL261 (mouse). […] After 3-18 hours fluorescent signal was read at 544ex/590em (SpectraMax i3x plate reader, Molecular Devices, San Jose CA, USA) to determine the number of viable cells. The IC50 values were calculated using commercial software (Prism 5 Software, GraphPad, La Jolla CA, USA). […] Cell viability was measured after 72 hours by Alamar Blue and results reported as triplicate experiment. The following Table presents the IC50 values as determined in these experiments.

Experiment [7] deals with meningioma. As to the kind of experiment: Treating a meningioma patient with SGRM, tumor load monitored by enhanced MRI. The class given is in vivo, human. The settings on record: 200 mg once a day for eight weeks. As for the experimental part: A patient complains of tinnitus and right-sided hearing loss for 6 months. […] They are treated with CORT125134 at a dose of 200 mg once a day for eight weeks. Their tumor load is monitored using enhanced MRI before, during and after the treatment.
A patient complains of tinnitus and right-sided hearing loss for 6 months. […] They are treated with CORT125281 at a dose of 200 mg once a day for eight weeks. Their tumor load is monitored using enhanced MRI before, during and after the treatment.

SMILES strings stand for the structures.

As for `Cn1cc(S(=O)(=O)N2CCC3=Cc4c(cnn4-c4ccc(F)cc4)C[C@]3(C(=O)c3cc(C(F)(F)F)ccn3)C2)cn1` [CORT125134, (R)-(1-(4-fluorophenyl)-6-((1-methyl-1H-pyrazol-4-yl)sulfonyl)-4,4a,5,6,7,8-hexahydro-1H-pyrazolo[3,4-g]isoquinolin-4a-yl)(4-(trifluoromethyl)pyridin-2-yl)methanone], the IC50 in experiment [1] is 20.7 µM; in experiment [2], 29.1 µM; in experiment [3], 5.86 µM; in experiment [4], 12.5 µM; in experiment [5] it was 5.42 µM; in experiment [6], 5 to 29 µM. Also, the “reduction of tumor size as compared to baseline at the end of the treatment period” value in experiment [7] was “more than 50%”.
In the case of `Cn1ncc(S(=O)(=O)N2CC[C@H]3Cc4c(cnn4-c4ccc(F)cc4)C[C@]3(C(=O)c3cc(C(F)(F)F)ccn3)C2)n1` [CORT125281, ((4aR,8aS)-1-(4-fluorophenyl)-6-((2-methyl-2H-1,2,3-triazol-4-yl)sulfonyl)-4,4a,5,6,7,8,8a,9-octahydro-1H-pyrazolo[3,4-g]isoquinolin-4a-yl)(4-(trifluoromethyl)pyridin-2-yl)methanone], the “reduction of tumor size as compared to baseline at the end of the treatment period” value in experiment [7] is listed as “more than 50%”.
Turning to `CC#C[C@]1(O)CC[C@H]2[C@@H]3CCC4=CC(=O)CCC4=C3[C@@H](c3ccc(N(C)C)cc3)C[C@@]21C` [Mifepristone, 17-β-hydrox-11-β-(4-dimethyl-aminophenyl)17-α-(1-propynyl)estra-4,9-dien-3-one, reference compound], the IC50 in experiment [1] is 24.1 µM; in experiment [2], 24 µM; in experiment [3] it was 15.7 µM; in experiment [4], 18.4 µM; in experiment [5], 18.4 µM; in experiment [6], 16 to 24 µM.

These data come from patent publication US12263169B2, “Methods of treating neuroepithelial tumors using selective glucocorticoid receptor modulators” (Corcept Therapeutics, Inc., priority 2017, dated 2025).
